Experimental data published in ChEMBL document CHEMBL1955762, “An iminosugar N-pentafluorobenzyl-1-deoxynojirimycin as a novel potential immunosuppressant for the treatment of Th2-related diseases” (Bioorg Med Chem Lett, 2012).
Calls of active or inactive are those of the source. The calls are words filed in the database; no cut-off is given here.

Experiments:
PBMC [1] = experiment: Inhibition of PMA-induced GATA3 expression in human PBMC at 90 uM after 15 mins by Western blot analysis; format: functional, cell-based
[2] = target: Tyrosine-protein kinase JAK1 (Homo sapiens) (UniProt P23458); experiment: Inhibition of JAK1-mediated GATA3 phosphorylation in PMA-stimulated human PBMC at 90 uM after 30 mins by Western blot analysis
PBMC [3] = experiment: Inhibition of Con-A-induced phospho-STAT6 expression in human PBMC at 90 uM after 72 hrs by flow cytometry (reference value: 10.52+/-1.9%); format: functional; conditions: read-out: INH
PBMC [4] = experiment: Inhibition of Con A-induced phospho-GATA3 expression in human PBMC at 90 uM after 72 hrs by flow cytometry; format: functional, cell-based
PBMC [5] = experiment: Inhibition of PMA-induced JAK1 expression in human PBMC at 90 uM after 15 mins by Western blot analysis; format: functional, cell-based
T-cell [6] = experiment: Immunosuppressant activity in human CD4+ T cells assessed as Con A-induced intracellular IL4 level at 90 uM after 72 hrs by flow cytometry (reference value: 4.2+/-0.9%); format: functional
PBMC [7] = experiment: Inhibition of ConA-induced phospho-JAK1 expression in human PBMC at 90 uM after 72 hrs by flow cytometry; format: functional, cell-based
[8] = target: Tyrosine-protein kinase JAK1 (Homo sapiens) (UniProt P23458); experiment: Inhibition of PMA-induced JAK1 phosphorylation in human PBMC at 90 uM after 15 mins by Western blot analysis
T-cell [9] = experiment: Inhibition of CD4 expression in human CD4+ T cells; format: functional, cell-based
PBMC [10] = experiment: Immunosuppressant activity in human PBMC assessed as reduction in Con A-induced extracellular IL4 level at 90 uM after 72 hrs by ELISA relative to untreated control; format: functional
Mus musculus [11] = experiment: Immunosuppressant activity in C57BL/6 mouse infected with Schistosoma japonicum assessed as inhibition of IFN-gamma production in spleen at 100 mM, iv after 56 days by ELISA; format: functional, organism-based
Mus musculus [12] = experiment: Immunosuppressant activity in C57BL/6 mouse infected with Schistosoma japonicum assessed as inhibition of IL-4 production in spleen at 100 mM, iv after 56 days by ELISA; format: functional, organism-based
T-cell [13] = experiment: Immunosuppressant activity in human CD3+ CD4+ T cells assessed as reduction in CD4 surface expression at 90 uM after 72 hrs by flow cytometry (reference value: 46%); format: functional; parameters: scale not given: the % may be the effect or the level left
T-cell [14] = experiment: Immunosuppressant activity in human CD3+ CD4+ T cells pretreated with TritonX 100 assessed as reduction in CD4 surface expression at 90 uM after 72 hrs by flow cytometry (reference value: 46%); format: functional; parameters: scale not given: the % may be the effect or the level left
[15] = target: Tyrosine-protein kinase JAK1 (Homo sapiens) (UniProt P23458); experiment: Inhibition of JAK1-mediated GATA3 phosphorylation in PMA-stimulated human PBMC at 90 uM by Western blot analysis; conditions: TDE = time-dependent effect
[16] = Induction of apoptosis in Con A-stimulated human PBMC assessed as viable cells at 90 uM after 72 hrs by annexin V/PI based flow cytometric analysis (reference value: 84.6 %); format: cell-based; conditions: read-out: Activity
Mus musculus [17] = experiment: Immunosuppressant activity in C57BL/6 mouse infected with Schistosoma japonicum assessed as inhibition of IL-4 production in liver at 100 mM, iv after 45 days by ELISA; format: functional, organism-based
Mus musculus [18] = experiment: Immunosuppressant activity in C57BL/6 mouse infected with Schistosoma japonicum assessed as inhibition of IL-4 production in liver at 100 mM, iv after 56 days by ELISA; format: functional, organism-based
Mus musculus [19] = experiment: Immunosuppressant activity in C57BL/6 mouse infected with Schistosoma japonicum assessed as inhibition of IFN-gamma production in spleen at 100 mM, iv after 45 days by ELISA; format: functional, organism-based
Mus musculus [20] = experiment: Immunosuppressant activity in C57BL/6 mouse infected with Schistosoma japonicum assessed as inhibition of IFN-gamma production in liver at 100 mM, iv after 56 days by ELISA; format: functional, organism-based
Mus musculus [21] = experiment: Immunosuppressant activity in C57BL/6 mouse infected with Schistosoma japonicum assessed as inhibition of IFN-gamma production in liver at 100 mM, iv after 45 days by ELISA; format: functional, organism-based
Schistosoma japonicum = experiment: Antischistosomiasis activity against Schistosoma japonicum infected in C57BL/6 mouse at 100 mM, iv after 45 days; format: functional, organism-based
Splenocyte = experiment: Immunosuppressant activity in BALB/c mouse splenocytes assessed as reduction in Con A-induced IL4 secretion at 90 uM after 72 hrs by ELISA; format: functional, cell-based
Mus musculus [22] = experiment: Immunosuppressant activity in C57BL/6 mouse infected with Schistosoma japonicum assessed as decrease in liver granuloma size at 100 mM, iv after 45 days; format: functional, organism-based
T-cell [23] = experiment: Immunosuppressant activity in human CD3+ CD4+ T cells pretreated with TritonX 100 assessed as CD4 internalization at 90 uM after 72 hrs by confocal laser scanning microscopy; format: functional, cell-based
PBMC [24] = experiment: Induction of apoptosis in Con A-stimulated human PBMC assessed as necrotic cells at 90 uM after 72 hrs by annexin V/PI based flow cytometric analysis (reference value: 5.8 %); format: cell-based
[25] = target: Tyrosine-protein kinase JAK1 (Homo sapiens) (UniProt P23458); experiment: Inhibition of PMA-induced JAK1 phosphorylation in human PBMC at 90 uM by Western blot analysis; conditions: TDE = time-dependent effect
PBMC [26] = experiment: Induction of apoptosis in Con A-stimulated human PBMC assessed as late apoptotic cells at 90 uM after 72 hrs by annexin V/PI based flow cytometric analysis (reference value: 4.3 %); format: cell-based
PBMC [27] = experiment: Induction of apoptosis in Con A-stimulated human PBMC assessed as early apoptotic cells at 90 uM after 72 hrs by annexin V/PI based flow cytometric analysis (reference value: 6.3 %); format: cell-based

Tyrosine-protein kinase JAK1 (Homo sapiens), sequence (P23458 whole entry): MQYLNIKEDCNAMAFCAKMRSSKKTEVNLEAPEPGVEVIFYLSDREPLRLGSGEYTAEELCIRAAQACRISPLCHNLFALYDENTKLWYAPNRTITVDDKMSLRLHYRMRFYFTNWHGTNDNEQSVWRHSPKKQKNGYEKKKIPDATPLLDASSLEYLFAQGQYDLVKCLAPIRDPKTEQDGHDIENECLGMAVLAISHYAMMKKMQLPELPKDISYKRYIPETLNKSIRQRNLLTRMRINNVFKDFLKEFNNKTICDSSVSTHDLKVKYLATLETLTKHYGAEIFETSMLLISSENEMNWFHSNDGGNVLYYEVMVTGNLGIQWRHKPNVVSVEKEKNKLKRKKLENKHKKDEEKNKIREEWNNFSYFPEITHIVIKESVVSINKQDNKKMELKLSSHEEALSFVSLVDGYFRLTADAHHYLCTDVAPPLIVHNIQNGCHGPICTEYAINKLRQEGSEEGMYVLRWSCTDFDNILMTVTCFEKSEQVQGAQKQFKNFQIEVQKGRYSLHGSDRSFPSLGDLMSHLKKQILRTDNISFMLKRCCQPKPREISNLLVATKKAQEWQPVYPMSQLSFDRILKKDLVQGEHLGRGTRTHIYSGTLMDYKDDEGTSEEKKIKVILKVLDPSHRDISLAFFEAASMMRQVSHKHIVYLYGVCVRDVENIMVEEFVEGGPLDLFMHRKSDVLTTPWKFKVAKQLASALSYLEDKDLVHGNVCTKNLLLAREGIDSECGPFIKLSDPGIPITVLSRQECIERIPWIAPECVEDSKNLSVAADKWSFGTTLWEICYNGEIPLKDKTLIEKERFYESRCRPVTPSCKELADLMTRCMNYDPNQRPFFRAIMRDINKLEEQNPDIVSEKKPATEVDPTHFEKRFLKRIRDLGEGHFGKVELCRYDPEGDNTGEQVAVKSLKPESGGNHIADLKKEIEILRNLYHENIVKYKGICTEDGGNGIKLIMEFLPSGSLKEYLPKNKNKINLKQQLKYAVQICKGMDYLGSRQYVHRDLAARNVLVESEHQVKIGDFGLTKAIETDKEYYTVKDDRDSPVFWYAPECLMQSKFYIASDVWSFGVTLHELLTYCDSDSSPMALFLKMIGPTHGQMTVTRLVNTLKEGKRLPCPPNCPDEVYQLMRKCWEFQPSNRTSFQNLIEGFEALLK

inhibition [2]	inhibition [8]	IC50 (T-cell [9]) [µM]	SMILES	inhibition (PBMC [1])	phospho-STAT6 expression level at 90 µM (PBMC [3]) [%]	inhibition (PBMC [4])	inhibition (PBMC [5])	Activity (T-cell [6]) [%]	inhibition (PBMC [7])	Activity (PBMC [10])	other results
inactive	inactive		OC[C@H]1NC[C@@H](O)[C@@H](O)[C@@H]1O [DEOXYMANNOJIRIMYCIN]	inactive	8.8	Active	inactive	1.5	Active		
inactive	inactive	25.6	OC[C@H]1NC[C@H](O)[C@@H](O)[C@@H]1O [DUVOGLUSTAT]	inactive	9.6	Active	inactive	2.53	Active	inactive	
Active	Active	20.2	OC[C@@H]1[C@@H](O)[C@H](O)[C@@H](O)CN1Cc1c(F)c(F)c(F)c(F)c1F	inactive	4.5	Active	inactive	0.79	Active	26%	inhibition (Mus musculus [11]): inactive; inhibition (Mus musculus [12]): Active; Activity (T-cell [13]): 28%; Activity (T-cell [14]): 44%; inhibition [15]: tde; viability at 72 h, 90 µM [16]: 83%; inhibition (Mus musculus [17]): inactive; inhibition (Mus musculus [18]): inactive; inhibition (Mus musculus [19]): inactive; inhibition (Mus musculus [20]): inactive; inhibition (Mus musculus [21]): inactive; Activity (Schistosoma japonicum): Active; Activity (Splenocyte): Active; Activity (Mus musculus [22]): Active; Activity (T-cell [23]): Active; Activity (PBMC [24]): 4.7%; inhibition [25]: tde; Activity (PBMC [26]): 5.2%; Activity (PBMC [27]): 7.2%
			C/C=C/C[C@@H](C)[C@@H](O)[C@H]1C(=O)N[C@@H](CC)C(=O)N(C)CC(=O)N(C)[C@@H](CC(C)C)C(=O)N[C@@H](C(C)C)C(=O)N(C)[C@@H](CC(C)C)C(=O)N[C@@H](C)C(=O)N[C@H](C)C(=O)N(C)[C@@H](CC(C)C)C(=O)N(C)[C@@H](CC(C)C)C(=O)N(C)[C@@H](C(C)C)C(=O)N1C [CYCLOSPORINE]		3.7			0.71		26%	
